Legend:
MuSCs [1] = experiment: Young MuSC numbers after acute PGE2 treatment, hydrogel culture (hemocytometer count); type: cell-based, mouse; conditions: ONO-AE3-208 1 μM, PGE2 10 ng/ml, 24 hr
Protocol: (§1) Following isolation, we resuspended MuSCs in myogenic cell culture medium containing DMEM/F10 (50:50), 15% FBS, 2.5 ng ml^−1 fibroblast growth factor-2 (FGF-2 also known as bFGF) and 1% penicillin-streptomycin. We seeded MuSC suspensions at a density of 500 cells per cm^2 surface area. We maintained cell cultures at 37° C. in 5% CO2 and changed medium daily. […]
(§2) To assay proliferation, we used three different assays (hemocytometer, VisionBlue, and EdU). […] For hemocytometer cell number count, we collected cells at indicated timepoints by incubation with 0.5% trypsin in PBS for 5 min at 37° C. and quantified them using a hemocytometer at least 3 times. Additionally, we used the VisionBlue Quick Cell Viability Fluorometric Assay Kit (BioVision, catalog #K303) as a readout for cell growth in culture. Briefly, we incubated MuSCs with 10% VisionBlue in culture medium for 3 h, and measured fluorescence intensity on a fluorescence plate reader (Infinite M1000 PRO, Tecan) at Ex=530-570 nm, Em=590-620 nm. […] We quantified EdU positive cells using the MetaMorph Image Analysis software (Molecular Devices). Data analyses were blinded, where researchers performing cell scoring were unaware of the treatment condition given to sample groups analyzed.

[2] = test system: hematopoietic, liver, and colon tissues; conditions: delivery of 15-PGDH inhibitor; cited from earlier work
MuSCs [3] = experiment: Quantitative RT-PCR of MuSC transcripts; type: cell-based, mouse; conditions: aged MuSCs, 1-day pulse
Excerpt: We isolated RNA from MuSCs using the RNeasy Micro Kit (Qiagen). For muscle samples, we snap froze the tissue in liquid nitrogen, homogenized the tissues using a mortar and pestle, followed by syringe and needle trituration, and then isolated RNA using Trizol (Invitrogen). We reverse-transcribed cDNA from total mRNA from each sample using the SensiFAST™ cDNA Synthesis Kit (Bioline). We subjected cDNA to RT-PCR using SYBR Green PCR Master Mix (Applied Biosystems) or TaqMan Assays (Applied Biosystems) in an ABI 7900HT Real-Time PCR System (Applied Biosystems). We cycled samples at 95° C. for 10 min and then 40 cycles at 95° C. for 15 s and 60° C. for 1 min. To quantify relative transcript levels, we used 2-ΔΔCt to compare treated and untreated samples and expressed the results relative to Gapdh. For SYBR Green qRT-PCR, we used the following primer sequences: Gapdh. forward 5′-[…]-3′ (SEQ ID NO: 1), reverse 5′-CCCTTTTGGCTCCACCCT-3′ (SEQ ID NO: 2); Hpgd, forward 5′-[…]-3′ (SEQ ID NO: 3), reverse 5′-[…]-3′ (SEQ ID NO: 4); Ptges, forward 5′-GCTGTCATCACAGGCCAGA-3′ (SEQ ID NO: 5), reverse 5′-[…]-3′ (SEQ ID NO: 6); Ptges2, forward 5′-[…]-3′ (SEQ ID NO: 7), reverse 5′-[…]-3′ (SEQ ID NO: 8); Ptger1, forward 5′ GTGGTGTCGTGCATCTGCT-3′ (SEQ ID NO: 9), reverse, 5′ […]-3′ (SEQ ID NO: 10), and Ptger2, forward 5′-[…]-3′ (SEQ ID NO: 11), reverse 5′-[…]-3′ (SEQ ID NO: 12). TaqMan Assays (Applied Biosystems) were used to quantify Pax7. Myogenin. Slco2a1 (PGT), Ptger3 and Ptger4 in samples according to the manufacturer instructions with the TaqMan Universal PCR Master Mix reagent kit (Applied Biosystems). Transcript levels were expressed relative to Gapdh levels. For SYBR Green qPCR, Gapdh qPCR was used to normalize input cDNA samples. For Taqman qPCR, multiplex qPCR enabled target signals (FAM) to be normalized individually by their internal Gapdh signals (VIC).

aged MuSCs = experiment: Aged MuSC numbers after acute 24 hr treatment, hydrogel culture; type: cell-based, mouse; conditions: 1-day pulse; PGE2 10 ng/ml or SW033291 1 μM; assayed day 7
Protocol: as §1, §2

endogenous MuSCs = experiment: Endogenous MuSCs by Pax7-luciferase BLI after cardiotoxin injury; type: in vivo, mouse
Protocol: We performed bioluminescence imaging (BLI) using a Xenogen-100 system, as previously described^1,5,6. Briefly, we anesthetized mice using isofluorane inhalation and administered 120 μL D-luciferin (0.1 mmol kg^−1, reconstituted in PBS; Caliper LifeSciences) by intraperitoneal injection. We acquired BLI using a 60 s exposure at F-stop=1.0 at 5 minutes after luciferin injection. Digital images were recorded and analyzed using Living Image software (Caliper LifeSciences). We analyzed images with a consistent region-of-interest (ROI) placed over each hindlimb to calculate a bioluminescence signal. We calculated a bioluminescence signal in radiance (p s^−1 cm^−2 sr^−1) value of 10^4 to define an engraftment threshold. This radiance threshold of 10^4 is approximately equivalent to the total flux threshold in p/s reported previously. This BLI threshold corresponds to the histological detection of one or more GFP+ myofibers^1,5,6. We performed BLI imaging every week after transplantation.
For Pax7^CreERT2; Rosa26-LSL-Luc mice experiments, we treated mice with five consecutive daily intraperitoneal injections of tamoxifen to activate luciferase expression under the control of the Pax7 promoter. A week after the last tamoxifen injection, mice were subjected to intramuscular injection of 10 μl of cardiotoxin (10 μM; Latoxan), which we designated as day 0 of the assay. […]

MuSCs [4] = experiment: MuSC transplantation into injured TA muscle, engraftment by bioluminescence imaging; type: in vivo, mouse
[5] = test system: tibialis anterior (TA) muscle; experiment: Intramuscular dmPGE2 after cardiotoxin injury of TA, histology (PAX7, myofiber CSA); type: in vivo, mouse
Protocol: We used an injury model entailing intramuscular injection of 10 μl of notexin (10 μg ml^−1; Latoxan) or cardiotoxin (10 μM; Latoxan) into the TA muscle. For cryoinjury, an incision was made in the skin overlying the TA muscle and a copper probe, chilled in liquid nitrogen, was applied to the TA muscle for three 10 s intervals, allowing the muscle to thaw between each application of the cryoprobe. When indicated, 48 hr after injury either 16,16-Dimethyl Prostaglandin E2 (dmPGE2) (13 nmol, Tocris, catalog #4027) or vehicle control (PBS) was injected into the TA muscle. The contralateral TA was used as an internal control. We collected tissues 14 days post-injury for analysis.
We collected and prepared recipient TA muscle tissues for histology as previously described^5,6. We incubated transverse sections with anti-LAMININ (Millipore, clone A5, catalog #05-206, 1:200), and anti-PAX7 (Santa Cruz Biotechnology, catalog #sc-81648, 1:50) primary antibodies and then with AlexaFluor secondary Antibodies (Jackson ImmunoResearch Laboratories, 1:200). We counterstained nuclei with DAPI (Invitrogen). We acquired images with an AxioPlan2 epifluorescent microscope (Carl Zeiss Microimaging) with Plan NeoFluar 10×/0.30NA or 20×/0.75NA objectives (Carl Zeiss) and an ORCA-ER digital camera (Hamamatsu Photonics) controlled by the SlideBook (3i) software. The images were cropped using Adobe Photoshop with consistent contrast adjustments across all images from the same experiment. The image composites were generated using Adobe Illustrator. We analyzed the number of PAX7 positive cells using the MetaMorph Image Analysis software (Molecular Devices), and the fiber area using the Baxter Algorithms for Myofiber Analysis that identified the fibers and segmented the fibers in the image to analyze the area of each fiber. For PAX7 quantification we examined serial sections spanning a depth of at least 2 mm of the TA. For fiber area at least 10 fields of LAMININ-stained myofiber cross-sections encompassing over 400 myofibers were captured for each mouse as above. Data analyses were blinded. The researchers performing the imaging acquisition and scoring were unaware of treatment condition given to sample groups analyzed.

[6] = test system: gastrocnemius (GA) muscle; experiment: In vivo muscle force after downhill treadmill run, aged mice (Example 1); design: species or system mouse; conditions: dmPGE2 daily 5 days in week 1, force at week 5
Protocol: Aged mice (18 mo.) were subjected to downhill treadmill run for 2 consecutive weeks. During week 1, mice ran daily for 5 days and rested on days 6 and 7. Two hours after each treadmill run during week 1, each (lateral and medial) gastrocnemius (GA) muscle from both legs of each mouse was injected with a dose of either PBS (vehicle control) or 13 nM dmPGE2 (experimental group). During week 2, mice were subjected to 5 days treadmill run only. The treadmill run was performed using the Exer3/6 (Columbus Instruments). Mice ran for 10 minutes on the treadmill at 20 degrees downhill, starting at a speed of 7 meters/min. After 3 min, the speed was increased by 1 meter/min to a final speed of 14 meter/min. […] Force measurements were on the GA muscles at week 5 based on a protocol published previously^5. […] Data were collected with a PCI-6251 acquisition card (National Instruments) and analyzed in Matlab. We calculated specific force values by normalizing the force measurements by the muscle physiological cross-sectional areas (PCSAs), which were similar between the control and the experimental PGE2 treated group (Table 2). PCSA (measured in mm^2) was calculated according to the following equation^12: PCSA (mm^2)=[mass (g)×Cos θ]÷[ρ(g/mm^3)×fiber length (mm)], where θ is pennation angle of the fiber and ρ is muscle density (0.001056 g/mm^3). […]

Tibialis anterior (TA) = experiment: Muscle twitch force after injury and indomethacin injection; type: in vivo, mouse; conditions: day 14 post-injury, indomethacin into cardiotoxin-injured muscles

With CC(C(=O)Nc1cc(C#N)ccc1CCCC(=O)O)c1ccc(F)c2ccccc12 (stereo not shown) [ONO-AE3-208] the “proliferation induced by PGE2 in presence of EP4 antagonist” value (MuSCs [1]) was “blunted”.
For CCCC[S+]([O-])c1sc2nc(-c3cccs3)cc(-c3ccccc3)c2c1N (stereo not shown) [SW033291], the “regeneration of hematopoietic, liver, and colon tissues” value [2] is listed as “enhance regeneration”, the “Pax7 expression in aged MuSCs” value (MuSCs [3]) is listed as “maintenance” and the “proliferation of aged MuSCs” value (aged MuSCs) is listed as “increase”.
In the case of CCCCC(C)(C)[C@H](O)/C=C/[C@H]1[C@H](O)CC(=O)[C@@H]1C/C=C\CCCC(=O)O [dmPGE2, 16,16-dimethyl prostaglandin E2], the “endogenous MuSCs assayed by Pax7-luciferase BLI” value (endogenous MuSCs; dmPGE2 3 days after cardiotoxin injury) is reported as “Increase”, the “engraftment of aged MuSCs relative to controls” value (MuSCs [4]; aged MuSCs (250 cells) coinjected with dmPGE2) is reported as “significantly enhanced” and the “engraftment of young MuSCs relative to controls” value (MuSCs [4]; freshly sorted young MuSCs (250 cells) coinjected with 13 nmol dmPGE2) is reported as “significantly enhanced”. For the same compound, the myofiber sizes ([5]; aged mice, fourteen days post-injury) was “increase”, the “increase in the number of endogenous MuSCs” value ([5]; aged mice, fourteen days post-injury, single dmPGE2 injection) was 24±2% and the “distribution of myofibers (cross-sectional area)” value ([5]; young mice, day 14 post injury) was “shifted toward larger sizes”. For the same compound, the “increase in endogenous PAX7-expressing MuSCs” value ([5]; young mice, fourteen days post cardiotoxin injury, single dmPGE2 bolus) was 60+15%, the “effect on endogenous MuSCs in the absence of injury” value ([5]; young mice, no injury) was “no effect” and the specific tetanic force [6] was “significantly increased”. For the same compound, the specific twitch force [6] was “significantly increased”.
For COc1ccc2c(c1)c(CC(=O)O)c(C)n2C(=O)c1ccc(Cl)cc1 [indomethacin], the “Twitch force compared to control group” value (Tibialis anterior (TA)) was “significant loss” and the “luciferase activity (muscle stem cell activation)” value (endogenous MuSCs; indomethacin injected three days post-cardiotoxin injury) was “significant decrease”.
